The target of one assay is T1, RORγ-LBD (Homo sapiens, UniProt P51449).
T1 construct: made in house; host or cells: SF9 cells (baculovirus)
T1 sequence (P51449 269-508 limits assumed): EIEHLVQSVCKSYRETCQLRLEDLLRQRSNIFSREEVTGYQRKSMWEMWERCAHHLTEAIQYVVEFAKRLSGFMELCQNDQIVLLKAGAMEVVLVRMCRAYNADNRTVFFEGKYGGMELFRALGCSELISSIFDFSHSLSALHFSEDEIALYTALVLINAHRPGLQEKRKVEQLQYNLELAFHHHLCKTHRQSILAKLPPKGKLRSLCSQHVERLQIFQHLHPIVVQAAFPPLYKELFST
The assay is described as follows: RORγ-Ligand Binding Domain (LBD) TR-FRET Assay.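 For TR-FRET Assay Max Response: 665/615 nm ratio relative to signal without ursolic acid or compound set at 100.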 The format is biochemical. A digest of the protocol:
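Lysate from SF9 cells expressing His-RORγ-LBD is diluted to about 3 nM final in 50 mM Tris pH 7.0 assay buffer. A biotin-tagged SRC1 LXXLL peptide goes in at 200 nM final, plus ursolic acid at 2 μM final. Test compounds carry 1% DMSO final; signal read by TR-FRET.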

Another assay concerns the target T2, Gal4-RORγ-LBD (Homo sapiens, UniProt P51449).
T2 construct: expressed in transfected cells; host or cells: HEK-293 cells (pcDNA3.1neo plasmid)
T2 sequence (P51449 269-508 limits assumed): T1 sequence (P51449 269-508 limits assumed)
Briefly: Gal4-RORγ Luciferase Reporter Assay in HEK-293T Cells. The format is cell-based. To be noted: HEK-293 cells. An outline of the steps:
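In transfected HEK-293 cells (Gal4-RORγ-LBD, Gal4-luciferase), test agents with 2 μM ursolic acid were incubated overnight at 37 °C before luminescent detection. Values are relative to the ursolic-acid-free, compound-free signal (100).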

Where [1] appears, read: luciferase reporter, with 2 μM ursolic acid.

The values that follow come from US10611740B2, “Aryl dihydro-2H-benzo[b][1,4]oxazine sulfonamide and related compounds for use as agonists of RORγ and the treatment of disease” (Lycera Corporation, priority 2015, dated 2020).

As to `O=C(O)CC[C@H]1CN(S(=O)(=O)c2cccc(C3CC3)c2)c2cc(-c3cccc(Cl)c3)ccc2O1` [Compound 6H, (S)-3-(6-(3-chlorophenyl)-4-((3-cyclopropylphenyl)sulfonyl)-3,4-dihydro-2H-benzo[b][1,4]oxazin-2-yl)propanoic acid], at RORγ-LBD, the EC50 was below 500 nM and the “TR-FRET Assay Max Response” value is “**** (The symbol “****” indicates a value greater than 200)”. Further, at Gal4-RORγ-LBD (setting [1]), the EC50 is below 500 nM and the “Gal4-RORγ Assay Max Response” value is “** (The symbol “**” indicates a value in the range of greater than 90 to 150)”.

For `Cc1c(C(F)(F)F)cccc1S(=O)(=O)N1C[C@H](CCC(=O)O)Oc2ccc(-c3cc(F)ccc3F)cc21` [Compound 6I, (S)-3-(6-(2,5-difluorophenyl)-4-((2-methyl-3-(trifluoromethyl)phenyl)-sulfonyl)-3,4-dihydro-2H-benzo[b][1,4]oxazin-2-yl)propanoic acid], at RORγ-LBD, the concentration for a half-maximal effect (EC50) was below 500 nM and the “TR-FRET Assay Max Response” value is “*** (The symbol “***” indicates a value in the range of greater than 150 to 200)”. Also, on Gal4-RORγ-LBD (setting [1]), the EC50 was in the range of 500 to 5000 nM and the “Gal4-RORγ Assay Max Response” value is listed as “** (The symbol “**” indicates a value in the range of greater than 90 to 150)”.

As to `O=C(O)CC[C@H]1CN(S(=O)(=O)c2cc(F)cc(C(F)(F)F)c2)c2cc(-c3cc(F)ccc3F)ccc2O1` [Compound 6J, (S)-3-(6-(2,5-difluorophenyl)-4-((3-fluoro-5-(trifluoromethyl)phenyl)-sulfonyl)-3,4-dihydro-2H-benzo[b][1,4]oxazin-2-yl)propanoic acid], at RORγ-LBD, the EC50 is below 500 nM and the “TR-FRET Assay Max Response” value is on record as “*** (The symbol “***” indicates a value in the range of greater than 150 to 200)”. In addition, on Gal4-RORγ-LBD (setting [1]), the EC50 is below 500 nM and the “Gal4-RORγ Assay Max Response” value was “** (The symbol “**” indicates a value in the range of greater than 90 to 150)”.

In the case of `COc1cc(S(=O)(=O)N2C[C@H](CCC(=O)O)Oc3ccc(-c4cc(F)cc(F)c4Cl)cc32)ccc1F` [Compound 6K, (S)-3-(6-(2-chloro-3,5-difluorophenyl)-4-((4-fluoro-3-methoxyphenyl)sulfonyl)-3,4-dihydro-2H-benzo[b][1,4]oxazin-2-yl)propanoic acid], at RORγ-LBD, the EC50 is below 500 nM and the “TR-FRET Assay Max Response” value is “*** (The symbol “***” indicates a value in the range of greater than 150 to 200)”. For the same compound, at Gal4-RORγ-LBD (setting [1]), the concentration giving a half-maximal response (EC50) is below 500 nM and the “Gal4-RORγ Assay Max Response” value is given as “** (The symbol “**” indicates a value in the range of greater than 90 to 150)”.

Consider `O=C(O)CC[C@H]1CN(S(=O)(=O)c2cccc(OC(F)F)c2)c2cc(-c3cc(F)cc(F)c3Cl)ccc2O1` [Compound 6L, (S)-3-(6-(2-chloro-3,5-difluoro-phenyl)-4-((3-(difluoromethoxy)-phenyl)sulfonyl)-3,4-dihydro-2H-benzo[b][1,4]oxazin-2-yl)propanoic acid], for which, at RORγ-LBD, the concentration for a half-maximal effect (EC50) was below 500 nM and the “TR-FRET Assay Max Response” value is listed as “*** (The symbol “***” indicates a value in the range of greater than 150 to 200)”. Also, at Gal4-RORγ-LBD (setting [1]), the EC50 is below 500 nM and the “Gal4-RORγ Assay Max Response” value was “** (The symbol “**” indicates a value in the range of greater than 90 to 150)”.

For `O=C(O)CC[C@H]1CN(S(=O)(=O)c2cccc(C(F)(F)F)c2)c2cc(-c3cccc(Cl)c3)c(Cl)cc2O1` [Compound 7, (S)-3-(7-chloro-6-(3-chlorophenyl)-4-((3-(trifluoromethyl)phenyl)sulfonyl)-3,4-dihydro-2H-benzo[b][1,4]oxazin-2-yl)propanoic acid], at RORγ-LBD, the concentration giving a half-maximal response (EC50) is below 500 nM and the “TR-FRET Assay Max Response” value was “**** (The symbol “****” indicates a value greater than 200)”. Moreover, on Gal4-RORγ-LBD (setting [1]), the half-maximal effective concentration (EC50) is below 500 nM and the “Gal4-RORγ Assay Max Response” value is on record as “** (The symbol “**” indicates a value in the range of greater than 90 to 150)”.

Consider `O=C(O)CC[C@H]1CN(S(=O)(=O)c2cccc(C(F)(F)F)c2)c2cc(-c3cccc(Cl)c3)cc(F)c2O1` [Compound 8, (S)-3-(6-(3-chlorophenyl)-8-fluoro-4-((3-(trifluoromethyl)phenyl)sulfonyl)-3,4-dihydro-2H-benzo[b][1,4]oxazin-2-yl)propanoic acid], for which, at RORγ-LBD, the EC50 is below 500 nM and the “TR-FRET Assay Max Response” value was “**** (The symbol “****” indicates a value greater than 200)”. On Gal4-RORγ-LBD (setting [1]), the EC50 is below 500 nM and the “Gal4-RORγ Assay Max Response” value was “** (The symbol “**” indicates a value in the range of greater than 90 to 150)”.

Take `O=C(O)C1CCN(C(=O)CC[C@H]2CN(S(=O)(=O)c3cccc(C(F)(F)F)c3)c3cc(-c4cccc(Cl)c4)cc(F)c3O2)CC1` [Compound 9, (S)-1-(3-(6-(3-chlorophenyl)-8-fluoro-4-((3-(trifluoromethyl)phenyl)sulfonyl)-3,4-dihydro-2H-benzo[b][1,4]oxazin-2-yl)propanoyl)piperidine-4-carboxylic acid]: on RORγ-LBD, the 50% effective concentration (EC50) was below 500 nM and the “TR-FRET Assay Max Response” value is “**** (The symbol “****” indicates a value greater than 200)”. Besides, at Gal4-RORγ-LBD (setting [1]), the half-maximal effective concentration (EC50) was below 500 nM and the “Gal4-RORγ Assay Max Response” value was “** (The symbol “**” indicates a value in the range of greater than 90 to 150)”.

For `CC(C)(O)CC[C@H]1CN(S(=O)(=O)c2cccc(C(F)(F)F)c2)c2cc(-c3cc(F)ccc3F)ccc2O1` [Compound 10, (S)-4-(6-(2,5-difluorophenyl)-4-((3-(trifluoromethyl)phenyl)sulfonyl)-3,4-dihydro-2H-benzo[b][1,4]oxazin-2-yl)-2-methylbutan-2-ol], at RORγ-LBD, the EC50 is below 500 nM and the “TR-FRET Assay Max Response” value is recorded as “**** (The symbol “****” indicates a value greater than 200)”. Also, on Gal4-RORγ-LBD (setting [1]), the 50% effective concentration (EC50) is below 500 nM and the “Gal4-RORγ Assay Max Response” value is “** (The symbol “**” indicates a value in the range of greater than 90 to 150)”.

`O=c1[nH]nc(CC[C@H]2CN(S(=O)(=O)c3cccc(C(F)(F)F)c3)c3cc(-c4cc(F)ccc4F)ccc3O2)o1` [Compound 11, (S)-5-(2-(6-(2,5-difluorophenyl)-4-((3-(trifluoromethyl)phenyl)sulfonyl)-3,4-dihydro-2H-benzo[b][1,4]oxazin-2-yl)ethyl)-1,3,4-oxadiazol-2(3H)-one]: on RORγ-LBD, the concentration giving a half-maximal response (EC50) was below 500 nM and the “TR-FRET Assay Max Response” value is reported as “**** (The symbol “****” indicates a value greater than 200)”. Further, on Gal4-RORγ-LBD (setting [1]), the EC50 is below 500 nM and the “Gal4-RORγ Assay Max Response” value is “** (The symbol “**” indicates a value in the range of greater than 90 to 150)”.

As for `CC(C)(C)OC(=O)NCC[C@H]1CN(S(=O)(=O)c2cccc(C(F)(F)F)c2)c2cc(-c3cc(F)ccc3F)ccc2O1` [Compound 12, tert-butyl (S)-(2-(6-(2,5-difluorophenyl)-4-((3-(trifluoromethyl)phenyl)sulfonyl)-3,4-dihydro-2H-benzo[b][1,4]oxazin-2-yl)ethyl)carbamate], on RORγ-LBD, the EC50 was below 500 nM and the “TR-FRET Assay Max Response” value was “**** (The symbol “****” indicates a value greater than 200)”. Further, on Gal4-RORγ-LBD (setting [1]), the concentration for a half-maximal effect (EC50) is below 500 nM and the “Gal4-RORγ Assay Max Response” value is listed as “* (The symbol “*” indicates a value in the range of 25 to 90)”.

In the case of `CC(=O)NCC[C@H]1CN(S(=O)(=O)c2cccc(C(F)(F)F)c2)c2cc(-c3cc(F)ccc3F)ccc2O1` [Compound 13, (S)—N-(2-(6-(2,5-difluorophenyl)-4-((3-(trifluoromethyl)phenyl)sulfonyl)-3,4-dihydro-2H-benzo[b][1,4]oxazin-2-yl)ethyl)acetamide], at RORγ-LBD, the concentration giving a half-maximal response (EC50) was below 500 nM and the “TR-FRET Assay Max Response” value is on record as “**** (The symbol “****” indicates a value greater than 200)”. On Gal4-RORγ-LBD (2 μM ursolic acid), the EC50 was below 500 nM and the “Gal4-RORγ Assay Max Response” value was “** (The symbol “**” indicates a value in the range of greater than 90 to 150)”.

With `O=C(NC[C@H]1CN(S(=O)(=O)c2cccc(C(F)(F)F)c2)c2cc(-c3cc(F)ccc3F)ccc2O1)N1CCOCC1` [Compound 16, (S)—N-((6-(2,5-difluorophenyl)-4-((3-(trifluoromethyl)phenyl)sulfonyl)-3,4-dihydro-2H-benzo[b][1,4]oxazin-2-yl)methyl)morpholine-4-carboxamide], on RORγ-LBD, the half-maximal effective concentration (EC50) was below 500 nM and the “TR-FRET Assay Max Response” value was “**** (The symbol “****” indicates a value greater than 200)”. On Gal4-RORγ-LBD (2 μM ursolic acid), the EC50 is below 500 nM and the “Gal4-RORγ Assay Max Response” value is “** (The symbol “**” indicates a value in the range of greater than 90 to 150)”.

As for `CC(C)(O)C(=O)NC[C@H]1CN(S(=O)(=O)c2cccc(C(F)(F)F)c2)c2cc(-c3cc(F)ccc3F)ccc2O1` [Compound 17, (S)—N-((6-(2,5-difluorophenyl)-4-((3-(trifluoromethyl)phenyl)sulfonyl)-3,4-dihydro-2H-benzo[b][1,4]oxazin-2-yl)methyl)-2-hydroxy-2-methylpropanamide], at RORγ-LBD, the EC50 was below 500 nM and the “TR-FRET Assay Max Response” value was “**** (The symbol “****” indicates a value greater than 200)”. Moreover, at Gal4-RORγ-LBD (2 μM ursolic acid), the concentration giving a half-maximal response (EC50) was below 500 nM and the “Gal4-RORγ Assay Max Response” value is “** (The symbol “**” indicates a value in the range of greater than 90 to 150)”.
